Measured values: patent US20230172936A1, “VCP/p97 INHIBITOR FOR THE TREATMENT OF CANCER” (Cleave Therapeutics, Inc., priority 2020, published 2023)
Values joined by “and” are separate entries in the source; they are usually repeats but may differ in a detail not shown here. Equal values may be shown once. Read-outs that look alike come from different tables or passages of the source.

What was measured:
MV-411 cell line = assay: Cytotoxicity by Cell Titer Glo; assay type: cell-based; conditions: Homo sapiens, MV4-11, 144 h, 6 days
Procedure: Acute myelogenous leukemia (AML) is the most common acute leukemia in adults. A hematologic cancer, the disease is highly heterogeneous, with multiple subtypes. About 30% of AML cases harbor a FLT3/ITD mutation making the disease highly proliferative and more aggressive with a high risk of relapse.
Triplicate wells with media only and duplicate wells of vehicle (0.2% DMSO) were used as negative controls. […] To measure proliferation, untreated cells at days 0 and 6 were evaluated via Cell Titer Glo.
Protocol: • 1. AML cells were thawed and resuspended in enriched media composed of StemSpan™ Serum-Free Expansion Media (SFEM), 2% heat-inactivated FBS, StemSpan™ CC110 and recombinant human IL-3. • 2. 20,000 cells/well in 100 μL volume were plated on study day 0. • 3. […] Cells were incubated in the presence of drug for 6 days. • 5. On day 6, plates were removed from the incubator and equilibrated to room temperature for 20 minutes. 100 μL/well Cell Titer Glo was added to each well and incubated for 10 minutes before plate reading. • 6. Luminescence was recorded using Tecan Infinite M Plex plate reader.

[1] = tested on: human A549 lung adenocarcinoma xenograft tumors; assay: Tumor growth of A549 xenograft tumors; assay type: in vivo, mice; conditions: 18 day period
From the text: (§1) Group 1 received PO 4-days on, 3-days off doses (QD4/3 off) of vehicle.

[2] = From the text: as §1
MLL-AF9 cells = assay: MLL-AF9 allogenic disseminated mouse model of AML; assay type: in vivo, mice; conditions: 90 mg/kg oral gavage, 4 days on/3 days off, vs vehicle
Procedure: Compound 1 was tested in the MLL-AF9 allogenic disseminated mouse model of AML. 200,000 MLL-AF9-cells were injected via tail vein into 6-week-old C57BL/6 male mice (The Jackson Laboratory). Starting at day 8 after cell injection, mice were treated with Compound 1 delivered through oral gavage (90 mg/kg) or vehicle (0.5% methylcellulose) on a dosing schedule of 4 days “on” (administered on each of 4 days sequentially) followed by 3 days “off” (no administration on each of 3 sequential days) for 2 full cycles (two weeks total of 4 on/3 off).
The proportion of MLL-AF9 cells in peripheral blood (n=6 mice per group) was measured at 12 days post-injection of MLL-AF9 cells using flow cytometry. Murine peripheral blood, bone marrow and spleen were collected from each organ, washed with PBS-0.1% BSA-2 mM EDTA and lysed for 10 minutes with red blood cell lysis buffer (Sigma). After two washing steps with PBS-0.1% BSA-2 mM EDTA, bone marrow cells were stained for 30 minutes at 4° C. with corresponding cell surface antibodies for CD45 (CD45 […], Invitrogen). Cells were then washed twice with PBS-0.1% BSA-2 mM EDTA before analysis of 10,000 cells gated for CD45+(high) with BD FACSCanto II (BD Biosciences) to isolate the AML blast population. Statistical significance determined using Mann-Whitney test in comparison with vehicle. Error bars represent mean±SEM. […]

[3] = Human plasma pharmacokinetics (Phase I dose escalation)
From the text: BID dosing may be also tested depending on initial PK assessments. Participants will be evaluated regularly for safety assessments including physical examinations and laboratory testing. Bone marrow aspirates and/or biopsies will be performed at regular intervals, including for assessment of tumor response as per 2017 European LeukemiaNet (ELN) response criteria for AML or 2006 revised International Working Group (IWG) response criteria for MDS. Peripheral blood samples will be collected in Cycle 1 for intensive PK testing and PD biomarker assessments. Additional intensive PK testing will be collected for any participants undergoing intra-patient dose escalation.
A cycle consists of 28 days and the first cycle will comprise the DLT observation period.
Following the protocol of Example 7, additional patients were treated in the dose escalation study.

[4] = Adverse events and visual impairment in Phase I subjects

Cc1cc2c(C(N)=O)cccc2n1-c1nc2c(c(NCc3ccccc3)n1)CCCN2 [Compound 1, 1-(4-(Benzylamino)-5,6,7,8-tetrahydropyrido[2,3-d]pyrimidin-2-yl)-2-methyl-1H-indole-4-carboxamide]
IC50 (MV-411 cell line): 262 nM | TGI ([1]; 100 mg/kg QD4/3 off): 61% | tumor growth inhibition (TGI) ([1]; 150 mg/kg BIW, PO): 20% | TGI ([1]; 225 mg/kg once weekly (1/W)): 31% | drug-related deaths ([2]; 100 mg/kg QD4/3 off): a single drug-related death | tolerability of dosing regimen ([2]; 100 mg/kg QD4/3 off): generally tolerated | mean body weight loss ([2]; 100 mg/kg QD4/3 off, day 2): −7.0% | deaths ([2]; 150 mg/kg BIW cohort): No deaths | body weight loss ([2]; 150 mg/kg BIW, day 2): −1.5% | body weight loss ([2]; 150 mg/kg BIW, day 3): −3.9% | drug related deaths ([2]; 225 mg/kg 1/W cohort): A single drug related death | body weight loss ([2]; 225 mg/kg weekly, day 4): −8.1% | overall survival (MLL-AF9 cells; 2 cycles): improved the overall survival | circulating blast counts (MLL-AF9 cells in peripheral blood) (MLL-AF9 cells; 12 days post-injection): reduced circulating blast counts | AR ([3]; 25 mg QD, Day 4): 0.914 | accumulation ([3]; 25 mg QD, between days 1 and 4): No accumulation | exposure with concomitant proton pump inhibitors (PPi) ([3]; 100 mg QD, two of three subjects): lower exposure | exposure level increases between the doses ([3]; 25, 50, 100 and 175 mg QD, 9 patients): proportional and linear | plasma exposure compared with CB-5083 ([3]; Compound 1 25 mg QD vs CB-5083 40 mg QD): significantly higher plasma exposure | exposures compared with CB-5083 ([3]; Compound 1 25 mg QD vs CB-5083 at greater than 200 mg, FIG. 7): greater than dosing CB-5083 at greater than 200 mg | exposures compared with CB-5083 ([3]; dose escalation 25-175 mg QD, FIG. 8): greater than dosing CB-5083 | Tmax ([3]; human, in vivo, 25 mg): 2 h | tmax ([3]; human, in vivo, 25 mg): 2 h | AUC(0-inf) ([3]; human, in vivo, 25 mg, AUC0-inf): 1.03 µM·h and 425 ng·h/mL | AUC(0-t) ([3]; human, in vivo, 25 mg, AUC0-t): 0.88 µM·h and 364 ng·h/mL | Cmax ([3]; human, in vivo, 25 mg, Cmax): 198 nM and 81.7 ng/mL | half-life ([3]; human, in vivo, 25 mg, half-life): 3 to 4 h | half-life ([3]; human, in vivo, 25 mg, t1/2): 2.61 h | adverse events ([4]; 25 mg QD, two subjects): No adverse events | symptoms of visual impairment ([4]; 25 mg QD, two subjects): no symptoms of visual impairment | symptoms of visual impairment or other visual events ([4]; any dose levels, highest level 275 mg QD): No symptoms of visual impairment or other visual events | symptoms of visual impairment or other visual adverse events ([4]; at equivalent plasma exposure of Compound 1 and CB-5083): no symptoms of visual impairment or other visual adverse events
